Test results from patent US20040220198A1, “Methods for treating malaria by modulation of G protein function” (priority 2002, published 2004).
“Also recorded” adds a separate entry of the source. Ends that are not written are not given here.

Legend:
[1] = test system: P. falciparum; assay: Overnight P. falciparum infection assay with C terminal G protein peptides, new ring stage infection scored by Giemsa staining; type: cell-based, Plasmodium falciparum; settings: for effect on erythrocytic infection / new ring formation (words): 500 μM peptide in culture; for % Inhibition of Infection: 500 uM peptide, overnight, compared to mock treated cultures, standard error 10%
Procedure: FIG. 2. Effects of FITC-Gs peptide and its FITC-Gs-scrambled peptide on erythrocytic infection. Assays containing 500 μM of indicated peptides, their FITC-derived counterparts or solvent alone were added to a standard infection assay (see Table 1). FIG. 3. Cells taken from a standard infection assay incubated with 500 μM FITC-Gs peptide (A) or FITC-Gs scrambled peptide (B) were fixed in formaldehyde, and without permeabilization subjected to an indirect immunofluorescence assay with anti-MSP1 antibody (red, to detect extracellular parasites) and stained with DAPI (blue, to visualize nuclei). Samples were imaged by digitized fluorescence microscopy (FITC signal is green). Infection assays were set up using synchronized cultures of P. falciparum with a starting parasitemia of 6% schizonts. Cultures were incubated with 500 uM of the indicated peptides (Gs, Gs-scrambled, Gq or Gi-reversed) or mock treated (with no peptide) overnight and subsequently scored for new ring stage infection by Giemsa staining of thin blood smears. Infection is shown compared to that of mock treated cultures (containing no peptide).

[2] = test system: P. falciparum; assay: Preincubation (4 h) of red cells or schizonts with Gs peptide, wash, then overnight infection assay; type: cell-based, Plasmodium falciparum; settings: 500 μM, 4 h preincubation of red cells or late stage segmenters/schizonts, FIG. 1; listed as Gs peptide
Procedure: FIG. 1. Effects of preincubating (for 4 h) red cells or schizonts with Gs peptide on malarial infection. Uninfected red cells or schizonts were resuspended at 2×10^8 cells/ml in RPMI1640 and incubated with 500 μM Gs peptide or mock treated for 4 h at 37° C. The cells were subsequently recovered by centrifugation and washing in peptide-free medium. Washed cells were then subjected to an overnight infection assay (using 4% schizonts to infect the culture) in the absence of peptides.

[3] = test system: P. falciparum; assay: Dose dependent effect of Gs peptide on ring-infected P. falciparum cultures (development to trophozoites and next generation rings); type: cell-based, Plasmodium falciparum; settings: for effect on parasite growth in culture / new ring formation: extracellular 100-500 μM, Tables I and II
Procedure: Table II illustrates the dose dependent effect of Gs peptide on inhibition of P. falciparum infection. In this study, ring-infected cultures at 1% parasitemia were incubated with the indicated concentrations of Gs peptides under standard culture conditions and monitored for development to the subsequent trophozoite stage as well as the next generation of ring stage parasites. Parasitemias were detected by Giemsa staining of thin blood smears. Standard error: 10%.

[4] = target: host Gs coupled receptors of the red cell; assay: cell-based or functional assay
[5] = test system: P. berghei; assay: Standard 4 day Peters assay, P. berghei in mice, drug intraperitoneally; type: in vivo; settings: for inhibition of parasitemia / P. berghei infection in vivo: mice, day 4 parasitemia
Procedure: FIG. 11. […] In vivo mouse experiments were done with P. berghei using a standard 4 day Peters assay (W. Peters, B. L. Robinson, Ann Trop Med Parasitol 78, 561 (1984)). P. berghei and the racemic form of propranolol were administered intraperitoneally; five mice were used per data point. In IC50 studies, 5 data points were taken. Mice were given 5×10^7 parasites on day 0, and indicated concentrations of drug twice a day on days 0-3. Tail bleeds were carried out on day 4 to ascertain parasitemia, after which the animals were sacrificed.
FIG. 12. […] In vivo mouse experiments were done with P. berghei using a standard 4 day Peters assay (W. Peters, B. L. Robinson, Ann Trop Med Parasitol 78, 561 (1984)). P. berghei and ICI 181,551 were administered intraperitoneally; five mice were used per data point. In IC50 studies, 5 data points were taken. Mice were given 5×10^7 parasites on day 0, and indicated concentrations of drug twice a day on days 0-3. Tail bleeds were carried out on day 4 to ascertain parasitemia, after which the animals were sacrificed.
In vivo mouse experiments were done with P. berghei using a standard 4 day Peters assay (W. Peters, B. L. Robinson, Ann Trop Med Parasitol 78, 561 (1984)). P. berghei and β2-adrenergic receptor antagonists were administered intraperitoneally; five mice were used per data point. In IC50 studies, 5 data points were taken. Mice were given 5×10^7 parasites on day 0, and indicated concentrations of drug twice a day on days 0-3. Tail bleeds were carried out on day 4 to ascertain parasitemia, after which the animals were sacrificed.
In vivo mouse experiments were done with P. berghei using a standard 4 day Peters assay. P. berghei and ICI 181,551 were administered intraperitoneally; five mice were used per data point. In IC50 studies, 5 data points were taken. Mice were given 5×10^7 parasites on day 0, and indicated concentrations of drug twice a day on days 0-3. Tail bleeds were carried out on day 4 to ascertain parasitemia, after which the animals were sacrificed.
In vivo mouse experiments were done with P. berghei using a standard 4 day Peters assay. P. berghei and the indicated antagonists were administered intraperitoneally; five mice were used per data point. Mice were given 5×10^7 parasites on day 0, and indicated concentrations of drug twice a day on days 0-3. Tail bleeds were carried out on day 4 to ascertain parasitemia, after which the animals were sacrificed.

[6] = test system: P. falciparum (strain 3D7); assay: In vitro erythrocytic infection assay with Gs receptor agonists/antagonists, new ring stage infection after 4-6 h; type: cell-based, Plasmodium falciparum; settings: for blocking the stimulation of infection by P. falciparum in vitro: 10 μM isoproterenol or antagonist, 4-6 hours, FIG. 10
Procedure: Effects of β-adrenergic receptor agonist (isoproterenol) or antagonist (propranolol) on erythrocyte infection by P. falciparum. Cultures containing 2×10^8 red cells and 2.5×10^6 synchronized segmenters were incubated in 1 ml of 10% medium (10% human serum with RPMI) with the indicated agonist, antagonist, agonist+antagonist, or mock treated (solvent alone: 1 μl) for 6 h.
Effects of adenosine receptor agonist (NECA) and antagonist (8-SPT) on infection of erythrocytes by P. falciparum. Cultures were set up as described in FIG. 5, indicated concentrations of NECA, 8-SPT, both or solvent alone were added and infection was scored after 6 h as described.
Effects of (β-adrenergic and adenosine receptor) agonists and antagonists singly and in combination on in vitro erythrocytic infection by P. falciparum. In vitro infection assays were done with synchronized cultures of P. falciparum (strain 3D7) using standard culture conditions (K. Haldar, M. A. J. Ferguson, G. A. M. Cross, J Biol Chem 260, 4969 (1985)). A starting parasitemia of 2.5% schizonts (44-48 h in development) in 20 μl of red blood cells with 1 ml of 10% human serum in RPMI1640 was used. The cultures were incubated for 4-6 hours in the presence of Gαs protein receptor agonist or antagonist, or vehicle control. All detectable schizonts ruptured, and new ring stage infection was scored by Giemsa staining of thin blood smears.
In vitro effect of various β-adrenergic antagonists on inhibition of P. falciparum infection in red blood cells treated with isoproterenol. In vitro infection assays were done with synchronized cultures of P. falciparum (strain 3D7) using standard culture conditions (K. Haldar, M. A. J. Ferguson, G. A. M. Cross, J Biol Chem 260, 4969 (1985)). A starting parasitemia of 2.5% schizonts (44-48 h in development) in 20 μl of red blood cells with 1 ml of 10% human serum in RPMI1640 was used. The cultures were incubated for 4-6 hours in the presence of 10 μM beta-adrenergic receptor agonists or antagonists, or vehicle control. All detectable schizonts ruptured, and new ring stage infection was scored by Giemsa staining of thin blood smears.
In vitro infection assays were done with synchronized cultures of P. falciparum (strain 3D7) using standard culture conditions. A starting parasitemia of 2.5% schizonts (44-48 h in development) in 20 μl of red blood cells with 1 ml of 10% human serum in RPMI1640 was used. The cultures were incubated for 4-6 hours in the presence of 10 μM isoproterenol or antagonist, or vehicle control. All detectable schizonts ruptured, and new ring stage infection was scored by Giemsa staining of thin blood smears.

How did the “effect on erythrocytic infection / new ring formation (words)” value [1] turn out when “LQLNLKEYNLV (SEQ ID NO: 3) (synthetic C terminal peptide of Gq)” was run?
Its value is “little effect on plasmodial growth; also recorded: no significant effect on infection”.

And the “% Inhibition of Infection” value [1]?
Its value is 20%.

What does the source list for “QRMHLRQYELL (SEQ ID NO:1) (also: acetylated) [Gs]”?
effect of preincubation with peptide on infection [2]: no detrimental effect on infection; also recorded: failed to block infection; % Ring ([3]; Day 1, 5 μM Gs Peptide): 1.0%; % Ring ([3]; Day 1, 20 μM Gs Peptide): 1.0%; % Ring ([3]; Day 1, 50 μM Gs Peptide): 1.0%; % Ring ([3]; Day 1, 100 μM Gs Peptide): 1.0%; % Ring ([3]; Day 1, 200 μM Gs Peptide): 1.0%; % Ring ([3]; Day 1, 500 μM Gs Peptide): 1.0%; % Troph ([3]; Day 2, 5 μM Gs Peptide): 0.9%; % Troph ([3]; Day 2, 20 μM Gs Peptide): 1.0%; % Troph ([3]; Day 2, 50 μM Gs Peptide): 0.9%; % Troph ([3]; Day 2, 100 μM Gs Peptide): 0.8%; % Troph ([3]; Day 2, 200 μM Gs Peptide): 1.0%; % Troph ([3]; Day 2, 500 μM Gs Peptide): 0.9%; % Ring ([3]; Day 3, 5 μM Gs Peptide): 3.8%; % Troph ([3]; Day 3, 5 μM Gs Peptide): 0.6%; % Ring ([3]; Day 3, 20 μM Gs Peptide): 2.7%; % Troph ([3]; Day 3, 20 μM Gs Peptide): 0.6%; % Ring ([3]; Day 3, 50 μM Gs Peptide): 1.9%; % Troph ([3]; Day 3, 50 μM Gs Peptide): 0.3%; % Ring ([3]; Day 3, 100 μM Gs Peptide): 1.4%; % Troph ([3]; Day 3, 100 μM Gs Peptide): 0.6%; % Ring ([3]; Day 3, 200 μM Gs Peptide): 0.6%; % Troph ([3]; Day 3, 200 μM Gs Peptide): 0.5%; % Ring ([3]; Day 3, 500 μM Gs Peptide): 0.4%; % Troph ([3]; Day 3, 500 μM Gs Peptide): 0.5%; effect on parasite growth in culture / new ring formation ([3]; listed as Gs peptide): marked effect on new ring formation; effect on parasite growth in culture / new ring formation ([3]; listed as Gαs peptide): inhibit parasite growth in culture, in a dose dependent manner; extracellular concentrations required for significant inhibition ([3]; new ring formation): > 50 µM; effect on erythrocytic infection / new ring formation (words) [1]: marked inhibition of new rings; also recorded: significantly reduced erythrocytic infection; % Inhibition of Infection [1]: 87%

Which results are given for “Gαs peptide (C terminal peptide of the heterotrimeric G protein Gs)”?
% Inhibition of Infection (P. falciparum erythrocytic infection, 500 uM peptide, overnight) [4]: 87%; Day 3 % Ring (new ring stage parasitemia) at 5 µM Gs peptide; 5.2 at 0 µM [4]: 3.8%; Day 3 % Ring (new ring stage parasitemia) at 20 µM Gs peptide; 5.2 at 0 µM [4]: 2.7%; Day 3 % Ring (new ring stage parasitemia) at 50 µM Gs peptide; 5.2 at 0 µM [4]: 1.9%; Day 3 % Ring (new ring stage parasitemia) at 100 µM Gs peptide; 5.2 at 0 µM [4]: 1.4%; Day 3 % Ring (new ring stage parasitemia) at 200 µM Gs peptide; 5.2 at 0 µM [4]: 0.6%; Day 3 % Ring (new ring stage parasitemia) at 500 µM Gs peptide; 5.2 at 0 µM [4]: 0.4%

With “NGIKCLFNDKL (SEQ ID NO:4) (synthetic reverse C terminal peptide of Gri) [Gi-reverse, reverse of C terminal peptide of Gi]” as the molecule, how does the “effect on erythrocytic infection / new ring formation (words)” value ([1]; listed as Gi) read?
Its value is “no significant effect on infection”.

And the “effect on erythrocytic infection / new ring formation (words)” value ([1]; listed as Gri)?
The value was “little effect on plasmodial growth”.

And the “% Inhibition of Infection” value [1]?
The value was 6%.

Which “effect on erythrocytic infection / new ring formation (words)” value [1] does the source give for “ELRLQHYMQLR (SEQ ID NO:2) (synthetic scrambled G s peptide Gscb1) [Gs-scrambled]” here?
Its value is “does not block infection”.

And the “effect on erythrocytic infection / new ring formation (words)” value ([1]; listed as Gscb1)?
The value was “virtually no effect”.

What about the “% Inhibition of Infection” value [1] of the same molecule?
The value was 4%.

For `CC(C)NC[C@@H](O)COc1cccc2ccccc12` (single isomer, unassigned) [inactive isomer of propranolol], which “inhibition of parasitemia / P. berghei infection in vivo” value [5] is on record?
Its value is “no effect”.

And the “P. falciparum growth in culture” value [6]?
Its value is “no effect”.

With `COc1ccc(OC)c(C(O)C(C)NC(C)(C)C)c1` (centres unmarked) [butoxamine] as the molecule, how does the “blocking the stimulation of infection by P. falciparum in vitro” value [6] read?
Its value is “lower inhibitory effect”.

With `Cc1ccc(OCC(O)C(C)NC(C)C)c2c1CCC2` (centres unmarked) [ICI 181,551] as the molecule, how does the “inhibition of parasitemia / P. berghei infection in vivo” value [5] read?
The value was “effective at inhibiting parasitemia in vivo”.

`CC(C)NCC(O)COc1ccc(CC(N)=O)cc1` (centres unmarked) [altenolol, 4-[2-Hydroxy-3-[(1-methylethyl)amino]-propoxy]benzeneacetamide] was tested. Which “blocking the stimulation of infection by P. falciparum in vitro” value [6] did it give?
Its value is “almost as effective as propranolol at blocking the stimulation of infection”.

With `CC(C)NCC(O)COc1cccc2ccccc12` (racemic) [racemic propranolol] as the molecule, how does the IC90 ([5]; P. berghei infections in mice, twice a day days 0-3, FIG. 11) read?
The IC90 was 85 mg/kg/day.

And the “inhibition of parasitemia / P. berghei infection in vivo” value [5]?
The value was “block P. berghei infections in mice”.

What about the “blocking the stimulation of infection by P. falciparum in vitro” value [6] of the same molecule?
The value was “inhibit agonist-stimulated infection of P. falciparum in vitro”.
